Experimental data published in the NIST ThermoML archive (doi:10.1021/je900262t).
Numbers after ± are expanded uncertainties.

Legend:
[1] = Liquid; for mass density: 303.15 K, 101.33 kPa, Pycnometric method; for vapor or sublimation pressure: Ebulliometric method (Recirculating still)
[2] = excess molar enthalpy (molar enthalpy of mixing); xn = mol fraction of the nth substance listed; conditions: 298.15 K, 101 kPa, Liquid

CC(=O)CC(C)C [4-methylpentan-2-one]
mass density [1]: 796.33 ± 3.6 kg/m3 | vapor or sublimation pressure ([1]; 386.65 K): 95.3 ± 0.8 kPa

CC(=O)CC(C)C [4-methylpentan-2-one] + CN1CCCC1=O
excess molar enthalpy ([2]; x1 = 0.0508): 0.00545 ± 0.000908 kcal/mol | excess molar enthalpy ([2]; x1 = 0.1052): 0.0119 ± 0.0011 kcal/mol | excess molar enthalpy ([2]; x1 = 0.1632): 0.0183 ± 0.00131 kcal/mol | excess molar enthalpy ([2]; x1 = 0.2234): 0.0242 ± 0.00148 kcal/mol | excess molar enthalpy ([2]; x1 = 0.2858): 0.0304 ± 0.00167 kcal/mol | excess molar enthalpy ([2]; x1 = 0.3815): 0.04 ± 0.00198 kcal/mol | excess molar enthalpy ([2]; x1 = 0.4258): 0.0429 ± 0.00208 kcal/mol | excess molar enthalpy ([2]; x1 = 0.4787): 0.0432 ± 0.00208 kcal/mol | excess molar enthalpy ([2]; x1 = 0.5346): 0.0415 ± 0.00203 kcal/mol | excess molar enthalpy ([2]; x1 = 0.599): 0.0401 ± 0.00198 kcal/mol | excess molar enthalpy ([2]; x1 = 0.6712): 0.0362 ± 0.00186 kcal/mol | excess molar enthalpy ([2]; x1 = 0.7536): 0.0253 ± 0.00153 kcal/mol | excess molar enthalpy ([2]; x1 = 0.8369): 0.0156 ± 0.00122 kcal/mol | excess molar enthalpy ([2]; x1 = 0.9192): 0.00581 ± 0.000932 kcal/mol

CN1CCCC1=O [N-methylpyrrolidone]
mass density [1]: 1023.4 ± 0.84 kg/m3 | vapor or sublimation pressure ([1]; 473.25 K): 95.3 ± 1.9 kPa

CCC(C)=O [butanone]
mass density [1]: 799.71 ± 3.7 kg/m3 | vapor or sublimation pressure ([1]; 350.85 K): 95.3 ± 2 kPa

O=C1CCCCC1 [cyclohexanone] + CN1CCCC1=O
excess molar enthalpy ([2]; x1 = 0.0609): 0.0043 ± 0.000884 kcal/mol | excess molar enthalpy ([2]; x1 = 0.1242): 0.013 ± 0.00115 kcal/mol | excess molar enthalpy ([2]; x1 = 0.1855): 0.0201 ± 0.00136 kcal/mol | excess molar enthalpy ([2]; x1 = 0.2495): 0.0261 ± 0.00155 kcal/mol | excess molar enthalpy ([2]; x1 = 0.3151): 0.0331 ± 0.00177 kcal/mol | excess molar enthalpy ([2]; x1 = 0.3761): 0.0391 ± 0.00196 kcal/mol | excess molar enthalpy ([2]; x1 = 0.4301): 0.0425 ± 0.00206 kcal/mol | excess molar enthalpy ([2]; x1 = 0.4527): 0.0461 ± 0.00217 kcal/mol | excess molar enthalpy ([2]; x1 = 0.5028): 0.0484 ± 0.00227 kcal/mol | excess molar enthalpy ([2]; x1 = 0.5608): 0.0481 ± 0.00225 kcal/mol | excess molar enthalpy ([2]; x1 = 0.6249): 0.0477 ± 0.00225 kcal/mol | excess molar enthalpy ([2]; x1 = 0.6866): 0.04 ± 0.00198 kcal/mol | excess molar enthalpy ([2]; x1 = 0.7491): 0.0317 ± 0.00172 kcal/mol | excess molar enthalpy ([2]; x1 = 0.8134): 0.0237 ± 0.00148 kcal/mol | excess molar enthalpy ([2]; x1 = 0.8794): 0.0158 ± 0.00124 kcal/mol | excess molar enthalpy ([2]; x1 = 0.9445): 0.00798 ± 0.001 kcal/mol

O=C1CCCCC1 [cyclohexanone]
vapor or sublimation pressure ([1]; 426.25 K): 95.3 ± 1.1 kPa

CCC(C)=O [butanone] + CN1CCCC1=O
excess molar enthalpy ([2]; x1 = 0.0565): -0.00626 ± 0.000932 kcal/mol | excess molar enthalpy ([2]; x1 = 0.1162): -0.0109 ± 0.00108 kcal/mol | excess molar enthalpy ([2]; x1 = 0.1812): -0.0161 ± 0.00124 kcal/mol | excess molar enthalpy ([2]; x1 = 0.2461): -0.0239 ± 0.00148 kcal/mol | excess molar enthalpy ([2]; x1 = 0.3104): -0.0306 ± 0.0017 kcal/mol | excess molar enthalpy ([2]; x1 = 0.369): -0.0355 ± 0.00184 kcal/mol | excess molar enthalpy ([2]; x1 = 0.4334): -0.0382 ± 0.00194 kcal/mol | excess molar enthalpy ([2]; x1 = 0.4841): -0.04 ± 0.00198 kcal/mol | excess molar enthalpy ([2]; x1 = 0.5458): -0.0377 ± 0.00191 kcal/mol | excess molar enthalpy ([2]; x1 = 0.6781): -0.0277 ± 0.0016 kcal/mol | excess molar enthalpy ([2]; x1 = 0.7324): -0.0206 ± 0.00139 kcal/mol | excess molar enthalpy ([2]; x1 = 0.7935): -0.0148 ± 0.0012 kcal/mol | excess molar enthalpy ([2]; x1 = 0.8525): -0.0117 ± 0.0011 kcal/mol | excess molar enthalpy ([2]; x1 = 0.9112): -0.00593 ± 0.000932 kcal/mol | excess molar enthalpy ([2]; x1 = 0.9609): -0.0048 ± 0.000908 kcal/mol
